From patent US12195760B2, “Method for enhancing proliferation capability of stem cells using ethionamide” (SAMSUNG LIFE PUBLIC WELFARE FOUNDATION, priority 2016, dated 2025)

Legend:
[1] = system: human umbilical cord mesenchymal stem cells
Method: After 72 hours, cell proliferation analysis was performed. For this purpose, a BrdU cell proliferation assay kit (Cell Signaling Technology, USA) using 5-bromo-2′-deoxyuridine (BrdU) bound during DNA synthesis in cells was used. Specifically, BrdU was added to cells, and reacted for 24 hours. Thereafter, the cells were immobilized, and DNA was denatured. Then, the cells were treated with an anti-BrdU antibody, and then reacted with a tetramethylbenzidine (TMB) substrate using a secondary antibody conjugated with horse-radish peroxidase (HRP), and an absorbance value was measured at 450 nm using an ELISA reader.

[2] = system: human umbilical cord mesenchymal stem cells; conditions: ethionamide-primed MSCs compared to control not treated
Method: More specifically, the human umbilical cord mesenchymal stem cells (2×10^5 cells) were equally divided into 1.5 ml microtubes, treated with 100 μL of phosphate-buffered saline (PBS) containing 2% FBS, treated with an antibody bound to fluorescein isothiocyanate (FITC), phycoerythrin (PE), or allophycocyanin (APC), and then reacted at room temperature for 20 minutes. […] After the reaction, an antibody reaction was neutralized with PBS containing 2% FBS, and it was then determined whether the positive and negative markers were expressed using a flow cytometer.

[3] = system: human umbilical cord mesenchymal stem cells; conditions: ethionamide-primed MSCs compared to control not treated; Oil red O, Alizarin Red S, Safranin-O; FIGS. 3A to 3C
Method: Specifically, to induce differentiation into adipocytes or osteocytes, human umbilical cord mesenchymal stem cells (1×10^5 cells) cultured in a medium treated with ethionamide were seeded in a 6-well plate, and the differentiation was induced for approximately 3 weeks using adipogenesis/osteogenesis differentiation kits (Gibco, USA) while replacing the medium with a fresh medium twice a week. Thereafter, the cells differentiated into adipocytes and osteocytes were stained with Oil red O and Alizarin Red S to check whether the cells were differentiated into adipocytes and osteocytes. Quantification of the adipocytes was carried out by completely removing the medium from differentiation culture containers, drying the culture containers, putting 100% isopropanol into the culture containers, culturing the cells at room temperature for 10 minutes, thoroughly mixing the differentiated cells with 100% isopropanol, and measuring an absorbance at 500 nm to quantify the degree of differentiation. Quantification of the osteocytes was carried out by quantifying the degree of differentiation using an Alizarin Red S staining quantification assay kit (ScienCell, USA). […]

CCc1cc(C(N)=S)ccn1 [ethionamide, 2-ethylpyridine-4-carbothioamide]
proliferation rate according to treatment time ([1]; 10 uM or 100 uM ethionamide, treated for 72 hours, FIG. 1B): most significantly enhanced | proliferation rate of the cells according to treatment concentration ([1]; ethionamide at a concentration of 50 uM or more (tested 1 to 500 μM), 72 hours, BrdU absorbance 450 nm, FIG. 1A): significantly enhanced | expression of positive markers CD44, CD73, CD90, CD105, CD166 ([2]; FIG. 2A): expressed at a similar level | expression of negative markers CD11b, CD14, CD19, CD34, CD45, HLA-DR ([2]; FIG. 2B): not expressed at a level similar to the control | differentiation into adipocytes, osteocytes, and chondrocytes [3]: well differentiated
